{
  "source": "patent US9173838B2",
  "about": "“Reverse micelle compositions for delivery of metal cations comprising a diglyceride and a phytosterol and method of preparation” (MEDESIS PHARMA SA, priority 2004, dated 2015)",
  "key": {"[1]": {"test_system": "fructose rats (non insulin dependent diabetes model)", "test": "Antidiabetic activity on fructose rats", "format": "in vivo", "settings": "for glycemia D 0: D0 before start of treatment (baseline); for glycemia D3: day 3 of daily treatment; for glycemia D7: day 7 of daily treatment; for glycemia D21: day 21 of daily treatment", "source_text": "1—Antidiabetic Activity on Fructose Rats\nThe model of the fructose rats is a non insulin dependent diabetes (NIDD) similar to the observed human type 2 diabetes.\nIn this study, the NP 01 product contains reverse micelles based on vanadium, prepared according to example 2. Its therapeutic activity is compared with two reference drugs: Metformin and Rosiglitazone.\nAt D −21, after the period of stalling, rats are weighed and a blood sampling is made to determine the basal values of the biochemical parameters.\nThe rats are distributed randomly in groups of 10 rats. The drink water is then replaced by a solution of fructose 10% in distilled water. This solution is provided ad libitum for 21 days. They receive then again normal water for the following 21 days of the treatment.\nAt D 0, animals are weighed and a blood sampling is carried out.\nThe treatment then starts for a 21-day duration, with a daily administration: • Control group: 1 ml/kg of normal water per os • NP 01group: 2 ml/kg by the rectal route • Metformin group: 50 mg/kg of Metformin per os. • Rosiglitazone group: 5 mg/kg of Rosiglitazone per os\nAt D 21, blood sample and end of the treatment."}, "[2]": {"test_system": "adryamycin-induced inflammation/oedema in male Wistar rat leg", "test": "SOD like activity on rats: test with adryamycin (oedema by plethysmography)", "format": "in vivo", "experimental": "2—<<SOD Like>> Activity on Rats: Test with Adryamycin\nThe test with adryamycin is a specific test to highlight free anti-radicals activity of a substance. The product contains reverse micelles based on manganese prepared according to example 3.\nOne hour after injection in the leg of a male Wistar rat of 0.2 ml of a solution of adryamycin, a temporary inflammation appears for approximately 12 hours. A second inflammatory phase begins on the 3rd day and lasts for 5 days. The vascular hyperpermeability and the oedema which results therefrom, with a deterioration of the cells of endothelial membranes, are caused by the release of free radicals. […] The oedema is measured by plethysmography (expressed by % of pow volume).\n3 batches of 10 rats are made up: • negative batch controls: olive oil administration (2 ml/kg) by rectal route • positive batch controls: administration of 100 mg/kg of diosmine • batch treated by NP 02 (manufactured according to example 3): 2 ml/kg by rectal route Results (SD Stands for Standard Deviation)—FIG. 3"}, "[3]": {"test_system": "growing rats", "test": "Stimulation of the osseous growth on growing rats (femoral diameter)", "format": "in vivo, Wistar female rats", "settings": "once per day during 6 weeks, rectal route", "experimental": "3—Stimulation of the Osseous Growth on Growing Rats\nThe objective of this study is the assessment of a stimulation activity of the osseous growth in growing rats.\nThe product contains reverse micelles based on strontium prepared according to example 4.\n(§1) The animals are Wistar female rats of 200 g (average).\n(§2) Homogeneous batches of 10 rats are made up starting from their weight.\n(§3) The treatment is administered once per day during 6 weeks.\n(§4) Administered batches and products: • control batch (administration of olive oil by rectal route) • SrCl2 batch (SrCl2 and strontium ranelate are known active ingredients for the osseous growth and treatment of osteoporosis). 68.2 mg of metal Sr/kg/day are administered by rectal route. • NP 05 A batch: product prepared according to example 4 of the invention, with 12.5 mg metal Sr/kg/day.\n(§5) NP 05 B batch: product prepared according to example 5 of the invention, with 1.21 mg metal Sr/kg/day.\n(§6) NP 05 C batch: product prepared according to example 6 of the invention, with 0.12 mg metal Sr/kg/day.\n(§7) Parameters analyzed at the end of the treatment: • animals weight • measurement of the diameter of the rats femoral head after euthanasia and sampling (slide caliper under binocular magnifying glass) • Strontium amount in bone (by atomic absorption). • Strontium amount in plasma (by atomic absorption). Results"}, "[4]": {"test": "Strontium amount in bone and plasma of growing rats (atomic absorption)", "format": "in vivo, Wistar female rats", "settings": "end of 6 weeks treatment", "experimental": "as §1, §2, §3, §4, §5, §6, §7"}},
  "data": [
    {"smiles": "CN(C)C(=N)N=C(N)N", "note": "[Metformin]", "values": [
      {"measurement": "glycemia D 0", "setting": "[1]", "result": 10.64, "unit": "mmol/L"},
      {"measurement": "glycemia D3", "setting": "[1]", "result": 10.63, "unit": "mmol/L"},
      {"measurement": "glycemia D7", "setting": "[1]", "result": 9.68, "unit": "mmol/L"},
      {"measurement": "glycemia D21", "setting": "[1]", "result": 8.91, "unit": "mmol/L"}
    ]},
    {"smiles": "COc1ccc(-c2cc(=O)c3c(O)cc(O[C@@H]4O[C@H](CO[C@@H]5O[C@@H](C)[C@H](O)[C@@H](O)[C@H]5O)[C@@H](O)[C@H](O)[C@H]4O)cc3o2)cc1O", "note": "[Positive control, diosmine]", "values": [
      {"measurement": "free anti-radicals activity (in words)", "setting": "[2]", "result": "free anti-radical activity similar to Manganese superoxydismutase"},
      {"measurement": "% of pow volume D1", "setting": "[2]; Wistar rats, D1", "result": 106.7, "unit": "%"},
      {"measurement": "% of pow volume D2", "setting": "[2]; Wistar rats, D2", "result": 120.8, "unit": "%"},
      {"measurement": "% of pow volume D3", "setting": "[2]; Wistar rats, D3", "result": 152.2, "unit": "%"},
      {"measurement": "% of pow volume D4", "setting": "[2]; Wistar rats, D4", "result": 163, "unit": "%"},
      {"measurement": "% of pow volume D5", "setting": "[2]; Wistar rats, D5", "result": 177.6, "unit": "%"},
      {"measurement": "% of pow volume D6", "setting": "[2]; Wistar rats, D6", "result": 177.5, "unit": "%"},
      {"measurement": "% of pow volume D7", "setting": "[2]; Wistar rats, D7", "result": 168.2, "unit": "%"},
      {"measurement": "% of pow volume D8", "setting": "[2]; Wistar rats, D8", "result": 163.5, "unit": "%"}
    ]},
    {"smiles": "CN(CCOc1ccc(CC2SC(=O)NC2=O)cc1)c1ccccn1", "note": "(stereo not shown) [Rosiglitazone]", "values": [
      {"measurement": "glycemia D 0", "setting": "[1]", "result": 10.38, "unit": "mmol/L"},
      {"measurement": "glycemia D3", "setting": "[1]", "result": 10.47, "unit": "mmol/L"},
      {"measurement": "glycemia D7", "setting": "[1]", "result": 9.37, "unit": "mmol/L"},
      {"measurement": "glycemia D21", "setting": "[1]", "result": 9.13, "unit": "mmol/L"}
    ]},
    {"smiles": "[Cl-].[Cl-].[Sr+2]", "note": "[SrCl2]", "values": [
      {"measurement": "Femoral diameter", "setting": "[3]", "result": 3.93, "unit": "mm"},
      {"measurement": "Sr in bone", "setting": "[4]", "result": 1508.83, "unit": "µg/g"}
    ]}
  ]
}
